{"source": "patent US20240174723A1", "about": "“STAPLED ANTIMICROBIAL PEPTIDES (STAMPS) AND USES THEREOF” (Lytica Therapeutics, Inc., priority 2021, published 2024)", "key": {"E. coli": {"system": "E. coli", "assay_type": "cell-based, Escherichia coli", "summary_of_the_method": "(§1)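 Read-out is visible growth: the MIC is the minimum peptide concentration showing none after 20-24 h at 37 °C. Peptides were serially diluted from water stocks and mixed with log-phase bacteria (final 5×10^5 CFU/ml) in Mueller-Hinton or cation-adjusted Mueller-Hinton broth.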"}, "A. baumannii": {"system": "A. baumannii", "assay_type": "cell-based, Acinetobacter baumannii", "summary_of_the_method": "as §1"}, "P. aeruginosa": {"system": "P. aeruginosa", "assay_type": "cell-based, Pseudomonas aeruginosa", "summary_of_the_method": "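Broth microdilution adapted from CLSI in MHB or cation-adjusted MHB; log-phase P. aeruginosa at 5×10^5 CFU/ml final with serially diluted stapled peptides. Incubated 20-24 h at 37 °C; MIC is the lowest concentration without visible growth.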"}, "K. pneumoniae": {"system": "K. pneumoniae", "assay_type": "cell-based, Klebsiella pneumoniae", "summary_of_the_method": "as §1"}, "S. aureus": {"system": "S. aureus", "assay_type": "cell-based, Staphylococcus aureus", "summary_of_the_method": "as §1"}, "in vitro": {"assay": "in vitro", "assay_type": "cell-based", "conditions": "human", "procedure": "Cell culture: RPTEC were maintained in MEM media supplemented with growth factors. HEPG2 cell line was maintained in Eagle's Minimum Essential Medium (EMEM) supplemented with fetal bovine serum to a final concentration of 10%.\n90 minute cytotoxicity assay: Cells were plated in a 96-well format, and after overnight incubation, media was replaced with fresh media. Serial dilutions of StAMPs from a 5 mg/mL water stock, or vehicle, were added to the cells in a final volume of 100 μl. After incubating at 37° C. for 90 min, 50 μl of cell culture media was transferred to a clear 96-well plate, incubated with 50 μl of lactate dehydrogenase (LDH) assay reagent for 10 min, and absorbance measured at 490 nm on a microplate reader.\nRenal toxicity was measured after 90 minutes of incubation, while liver toxicity was measured after 48 hours of incubation with StAMPs. N/A=not tested. The following apply to all peptides (i.e., StAMPs) listed in Tables A-C: Crosslinks (X^1—X^2 and X^3—X^4): (alk); N-terminus: —NH2; C-terminus: amidated with —NH2; counterion: Cl^−. The following apply to all peptides (i.e., StAMPs) listed in Table D: Crosslinks (X^1—X^2 and X^3—X^4): (alk); N-terminus: —NH2; C-terminus: as shown in table; counterion: Cl^−.\nStAMP Micelle Formulation: DSPE-MPEG(2000) was suspended in buffered saline at 50-100 mg/mL overnight. StAMP stock solutions at 5-20 mg/mL in buffered saline were prepared and equal volumes of micelle and StAMP stock solution were mixed at the desired StAMP:Lipid ratio. Suspensions were allowed to sit for 5-10 minutes at room temperature before being used in in vitro and in vivo assays.\nIn Table E, the StAMP is StAMP 4 (Table A) and “Lipid”=DSPE-MPEG(2000)."}}, "note": "Positions of bridges follow the written chain, without caps; N, C: chain ends. Non-standard residues stand in square brackets, D forms with d. Residues, ends and D or L forms follow the SMILES beside them. Phe(4-CF3) = N[C@@H](Cc1ccc(C(F)(F)F)cc1)C(=O)O; Phe(4-F) = N[C@@H](Cc1ccc(F)cc1)C(=O)O; S5 = C=CCCC[C@](C)(N)C(=O)O; Dab = NCC[C@H](N)C(=O)O"}
{"smiles": "CC(C)[C@@H]1NC(=O)[C@H](C(C)C)NC(=O)[C@@](C)(NC(=O)[C@H](C)NC(=O)[C@H](CCCCN)NC(=O)CNC(=O)[C@H](Cc2ccc(F)cc2)NC(=O)[C@H](CCCCN)NC(=O)[C@H](CCCCN)NC(=O)[C@H](CCCCN)NC(=O)[C@H](CCCCN)NC(=O)[C@H](Cc2c[nH]cn2)NC(=O)[C@]2(C)CCCC=CCCC[C@](C)(NC(=O)CN)C(=O)NCC(=O)N[C@@H](CCCCN)C(=O)N[C@@H](Cc3ccc(F)cc3)C(=O)N2)CCCC=CCCC[C@@](C)(C(=O)N[C@@H](C)C(=O)N[C@@H](CCCCN)C(=O)N[C@@H](CCCCN)C(N)=O)NC(=O)[C@H](CCC(=O)O)NC1=O", "note": "[compound 29] (H-G[S5]GK[Phe(4-F)][S5]HKKKK[Phe(4-F)]GKA[S5]VVE[S5]AKK-NH2; staple 2-6, 16-20)", "values": [{"measurement": "Minimum Inhibitory Concentration (MIC) E. coli", "setting": "E. coli", "value": 2, "unit": "µg/mL"}, {"measurement": "Minimum Inhibitory Concentration (MIC) A. baumannii", "setting": "A. baumannii", "value": 2, "unit": "µg/mL"}, {"measurement": "Minimum Inhibitory Concentration (MIC) P. aeruginosa", "setting": "P. aeruginosa", "value": 4, "unit": "µg/mL"}, {"measurement": "Minimum Inhibitory Concentration (MIC) K. pneumoniae", "setting": "K. pneumoniae", "value": 4, "unit": "µg/mL"}, {"measurement": "Minimum Inhibitory Concentration (MIC) S. aureus", "setting": "S. aureus", "value": ">64", "unit": "µg/mL"}, {"measurement": "IC50 at 90 min", "setting": "in vitro", "value": 86, "unit": "µg/mL"}]}
{"smiles": "CC(C)[C@@H]1NC(=O)[C@H](C(C)C)NC(=O)[C@@](C)(NC(=O)[C@H](C)NC(=O)[C@H](CCCCN)NC(=O)CNC(=O)[C@H](Cc2ccc(C(F)(F)F)cc2)NC(=O)[C@H](CCCCN)NC(=O)[C@H](CCCCN)NC(=O)[C@H](CCCCN)NC(=O)[C@H](CCCCN)NC(=O)[C@H](Cc2c[nH]cn2)NC(=O)[C@]2(C)CCCC=CCCC[C@](C)(NC(=O)CN)C(=O)NCC(=O)N[C@@H](CCCCN)C(=O)N[C@@H](Cc3ccc(C(F)(F)F)cc3)C(=O)N2)CCCC=CCCC[C@@](C)(C(=O)N[C@@H](C)C(=O)N[C@@H](CCCCN)C(=O)N[C@@H](CCCCN)C(N)=O)NC(=O)[C@H](CCC(=O)O)NC1=O", "note": "[compound 30] (H-G[S5]GK[Phe(4-CF3)][S5]HKKKK[Phe(4-CF3)]GKA[S5]VVE[S5]AKK-NH2; staple 2-6, 16-20)", "values": [{"measurement": "Minimum Inhibitory Concentration (MIC) E. coli", "setting": "E. coli", "value": 2, "unit": "µg/mL"}, {"measurement": "Minimum Inhibitory Concentration (MIC) A. baumannii", "setting": "A. baumannii", "value": 2, "unit": "µg/mL"}, {"measurement": "Minimum Inhibitory Concentration (MIC) P. aeruginosa", "setting": "P. aeruginosa", "value": 4, "unit": "µg/mL"}, {"measurement": "Minimum Inhibitory Concentration (MIC) K. pneumoniae", "setting": "K. pneumoniae", "value": 4, "unit": "µg/mL"}, {"measurement": "Minimum Inhibitory Concentration (MIC) S. aureus", "setting": "S. aureus", "value": 32, "unit": "µg/mL"}, {"measurement": "IC50 at 90 min", "setting": "in vitro", "value": 17, "unit": "µg/mL"}]}
{"smiles": "CC(C)[C@@H]1NC(=O)[C@@](C)(NC(=O)[C@H](C)NC(=O)[C@H](CCCCN)NC(=O)CNC(=O)[C@H](Cc2ccccc2)NC(=O)[C@H](CCCCN)NC(=O)[C@H](CCCCN)NC(=O)[C@H](CCCCN)NC(=O)[C@H](CCCCN)NC(=O)[C@H](CCCCN)NC(=O)[C@]2(C)CCCC=CCCC[C@](C)(NC(=O)CN)C(=O)NCC(=O)N[C@@H](CCN)C(=O)N[C@@H](Cc3ccccc3)C(=O)N2)CCCC=CCCC[C@@](C)(C(=O)N[C@@H](C)C(=O)N[C@@H](CCCCN)C(=O)N[C@@H](CCCCN)C(N)=O)NC(=O)[C@H](CCC(=O)O)NC(=O)CNC1=O", "note": "[compound 37] (H-G[S5]G[Dab]F[S5]KKKKKFGKA[S5]VGE[S5]AKK-NH2; staple 2-6, 16-20)", "values": [{"measurement": "Minimum Inhibitory Concentration (MIC) E. coli", "setting": "E. coli", "value": 2, "unit": "µg/mL"}, {"measurement": "Minimum Inhibitory Concentration (MIC) A. baumannii", "setting": "A. baumannii", "value": 2, "unit": "µg/mL"}, {"measurement": "Minimum Inhibitory Concentration (MIC) P. aeruginosa", "setting": "P. aeruginosa", "value": 2, "unit": "µg/mL"}, {"measurement": "Minimum Inhibitory Concentration (MIC) K. pneumoniae", "setting": "K. pneumoniae", "value": 4, "unit": "µg/mL"}, {"measurement": "Minimum Inhibitory Concentration (MIC) S. aureus", "setting": "S. aureus", "value": ">64", "unit": "µg/mL"}, {"measurement": "IC50 at 90 min", "setting": "in vitro", "value": 113, "unit": "µg/mL"}]}
{"smiles": "CC(C)[C@@H]1NC(=O)[C@@](C)(NC(=O)[C@H](C)NC(=O)[C@H](CCCCN)NC(=O)CNC(=O)[C@H](Cc2ccccc2)NC(=O)[C@H](CCCCN)NC(=O)[C@H](CCCCN)NC(=O)[C@H](CCCCN)NC(=O)[C@H](CCN)NC(=O)[C@H](CCCCN)NC(=O)[C@]2(C)CCCC=CCCC[C@](C)(NC(=O)CN)C(=O)NCC(=O)N[C@@H](CCCCN)C(=O)N[C@@H](Cc3ccccc3)C(=O)N2)CCCC=CCCC[C@@](C)(C(=O)N[C@@H](C)C(=O)N[C@@H](CCCCN)C(=O)N[C@@H](CCCCN)C(N)=O)NC(=O)[C@H](CCC(=O)O)NC(=O)CNC1=O", "note": "[compound 38] (H-G[S5]GKF[S5]K[Dab]KKKFGKA[S5]VGE[S5]AKK-NH2; staple 2-6, 16-20)", "values": [{"measurement": "Minimum Inhibitory Concentration (MIC) E. coli", "setting": "E. coli", "value": 2, "unit": "µg/mL"}, {"measurement": "Minimum Inhibitory Concentration (MIC) A. baumannii", "setting": "A. baumannii", "value": 2, "unit": "µg/mL"}, {"measurement": "Minimum Inhibitory Concentration (MIC) P. aeruginosa", "setting": "P. aeruginosa", "value": 2, "unit": "µg/mL"}, {"measurement": "Minimum Inhibitory Concentration (MIC) K. pneumoniae", "setting": "K. pneumoniae", "value": 4, "unit": "µg/mL"}, {"measurement": "Minimum Inhibitory Concentration (MIC) S. aureus", "setting": "S. aureus", "value": ">64", "unit": "µg/mL"}, {"measurement": "IC50 at 90 min", "setting": "in vitro", "value": 117, "unit": "µg/mL"}]}
